The source made the active and inactive calls. The calls are words filed in the database; no cut-off is given here.

The text below walks through data of ChEMBL document CHEMBL4330116, “Harzianoic acids A and B, new natural scaffolds with inhibitory effects against hepatitis C virus” (Bioorg Med Chem, 2019).

The assay deals with Vesicular stomatitis virus. The assay is described as follows: Antiviral activity against VSV pseudoparticles infected in human Huh7.5 cells infected with VSV pseudoparticles expressed in 293T cells with plasmid encoding vesicular stomatitis G protein, envelope and Vpr deficient HIV vector carrying luciferase reporter gene inserted into Nef position assessed as inhibition of pseudoparticle entry at 6.25 to 100 uM after 72 hrs by luciferase reporter gene assay. In kind it is functional, organism-based.

As to `C/C(=C\CC[C@]1(C)[C@@H](C(=O)O)C[C@H]1[C@](C)(O)C(=O)O)C(=O)O`, the inhibition result is “inactive”.
On to `CC(=O)[C@@H]1C[C@H](C(=O)O)[C@@]1(C)CC/C=C(\C)C(=O)O`, for which the inhibition entry is “inactive”.
